# Measurements as given in PMC8658095, “PHA-680626 Is an Effective Inhibitor of the Interaction between Aurora-A and N-Myc” (International Journal of Molecular Sciences, 2021).
# Where two headings read alike, the source gives them in different places.
# Columns and labels:
# [1] = set-up: method as in PMID 25175806; conditions: cited from earlier work
# AURKA/N-Myc complex = molecular target: T1, AURKA/N-Myc complex (Homo sapiens, UniProt O14965); assay: In situ Proximity Ligation Assay of AURKA/N-Myc in U2OS MYCN cells; format: cell-based
# T1 construct: endogenous in cells; host or cells: U2OS FRT/TO Flp-In; AURKA endogenous, N-Myc-tFT from a stably integrated, doxycycline-inducible construct
# T1 sequence (O14965 1-403): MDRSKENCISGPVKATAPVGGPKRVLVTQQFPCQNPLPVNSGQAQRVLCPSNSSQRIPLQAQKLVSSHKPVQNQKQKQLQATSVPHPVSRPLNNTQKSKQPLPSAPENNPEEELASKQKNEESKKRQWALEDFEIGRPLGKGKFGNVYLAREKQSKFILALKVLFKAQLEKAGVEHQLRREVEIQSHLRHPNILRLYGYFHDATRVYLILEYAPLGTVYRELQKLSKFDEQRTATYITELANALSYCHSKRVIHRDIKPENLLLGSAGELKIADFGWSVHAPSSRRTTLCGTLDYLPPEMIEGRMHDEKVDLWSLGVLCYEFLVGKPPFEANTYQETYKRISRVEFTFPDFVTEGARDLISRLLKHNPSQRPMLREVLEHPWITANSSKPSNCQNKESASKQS
# IMR-32 cells [2] = assay: Cell death (PARP-1 cleavage) and morphology of IMR-32 cultures; format: cell-based; conditions: IMR-32, 1 μM, 48 h
# AURKA [3] = conditions: cited from earlier work
# IMR-32 cells [4] = assay: FACS analysis (PI) of cell cycle and sub-G1 DNA content; format: cell-based; conditions: IMR-32, 1 μM, 48 h; DMSO about 8%
# AURKA [5] = molecular target: T2, AURKA (Homo sapiens, UniProt O14965); assay: SPR binding kinetics on immobilized AURKA; conditions: 25 °C, flow rate 150 μL/min
# T2 construct: the catalytic domain of human AURKA (amino acids 122–430); His-tag followed by TEV protease cleavage site (N); made in house; host or cells: bacterial culture (LB, kanamycin, IPTG induction; pETM11)
# T2 sequence (O14965 122-403 limits assumed): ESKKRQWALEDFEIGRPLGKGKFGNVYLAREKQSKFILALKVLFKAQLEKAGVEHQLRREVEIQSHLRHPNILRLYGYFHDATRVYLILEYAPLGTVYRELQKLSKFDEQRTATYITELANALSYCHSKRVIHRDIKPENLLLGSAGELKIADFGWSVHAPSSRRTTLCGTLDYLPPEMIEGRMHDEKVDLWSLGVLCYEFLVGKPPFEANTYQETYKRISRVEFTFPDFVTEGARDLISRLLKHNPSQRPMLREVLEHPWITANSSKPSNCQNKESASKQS
compound,measurement,setting,value
O=C(Nc1ccc(Nc2nccc(Nc3cc(C4CCCC4)[nH]n3)n2)cc1)Nc1cccc(C(F)(F)F)c1 [CD532],half-life,[1],short half-life
same,oral bioavailability,[1],poor oral bioavailability
COc1cc2c(Nc3ccc(NC(=O)c4ccccc4)cc3)ncnc2cc1OCCCN1CCOCC1 [ZM447439],AURKA/N-Myc interaction (isPLA spots per nucleus),"AURKA/N-Myc complex; U2OS MYCN, 1 μM, MG-132 4 h before fixation",no difference between control and treated cells
same,cell morphology,IMR-32 cells [2]; bright-field microscopy,only induced spherical mitotic shapes
O=C(O)c1ccc(Nc2ncc3c(n2)-c2ccc(Cl)cc2C(c2c(F)cccc2F)=NC3)cc1 [MLN8054],AURKA/N-Myc interaction (isPLA spots per nucleus),AURKA/N-Myc complex,significantly reduced
same,cells with sub-G1 DNA content,IMR-32 cells [4],~30%
same,cleaved PARP-1 (cell death induction),IMR-32 cells [2]; Western blot,a fraction of cleaved PARP-1
"O=C(c1cccc(Cl)c1F)N1CCN(Cc2cccc(Nc3nccs3)n2)CC1 [MK8754, MK8745]",Koff,AURKA [5],12.0 ± 0.09 s^−1 × 10^−3
same,Kon,AURKA [5],7.8 ± 0.1 M^−1s^−1 × 10^6
same,Kd,AURKA [5]; koff/kon,1.55 ± 0.03 nM
same,IC50,AURKA [3],0.6 nM
